Assay [1] addresses T1, human D3R (Homo sapiens, UniProt P35462). Nature of the assay: β-Arrestin-2 recruitment assay. Type of assay: cell-based. To be noted: for D3R IC50 ± SEM: inhibition of (+)-PD128907-induced arrestin translocation in U2OS cells expressing D3R; for selectivity ratio (D2R IC50)/(D3R IC50): β-arrestin-2 recruitment antagonist selectivity.
In the next assay the target is human D2LR (Homo sapiens, UniProt P14416). Nature of the assay: [125I]IABN displacement binding, HEK cell membranes expressing human D2LR.
Chain of human D2LR (P14416 whole entry): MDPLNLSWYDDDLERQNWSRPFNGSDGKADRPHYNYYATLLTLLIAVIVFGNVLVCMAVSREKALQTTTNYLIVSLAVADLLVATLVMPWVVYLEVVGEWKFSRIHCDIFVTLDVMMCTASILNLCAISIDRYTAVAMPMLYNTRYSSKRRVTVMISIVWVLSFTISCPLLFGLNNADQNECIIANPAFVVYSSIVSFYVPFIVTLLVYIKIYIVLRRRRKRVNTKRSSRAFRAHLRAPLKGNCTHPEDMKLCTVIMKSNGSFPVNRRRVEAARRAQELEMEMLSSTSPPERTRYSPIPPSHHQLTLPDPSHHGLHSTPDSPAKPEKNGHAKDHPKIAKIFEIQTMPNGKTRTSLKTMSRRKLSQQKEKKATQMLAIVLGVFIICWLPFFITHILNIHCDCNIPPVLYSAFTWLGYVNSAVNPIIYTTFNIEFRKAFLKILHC
The target of assay [2] is T1, human D3R. Nature of the assay: [125I]IABN displacement binding, HEK cell membranes expressing human D3R.
For assay [3], the target named is T1, human D3R. Nature of the assay: [35S]GTPγS binding assay, CHO-hD3 membranes. Type of assay: biochemical. To be noted: for stimulation of [35S]GTPγS binding, D3R: agonist test; for inhibition of basal [35S]GTPγS binding at D3R: up to 1 μM concentration; for inhibition at 10 µM: read-out: inhibition of D3R basal [35S]GTPγS binding.
The next assay addresses human D2R (Homo sapiens, UniProt P14416). The assay is described as follows: [35S]GTPγS binding assay, CHO-hD2 membranes. To be noted: for stimulation of [35S]GTPγS binding, D2R: agonist test; for inhibition of basal [35S]GTPγS binding at D2R: up to 1 μM concentration. In kind it is biochemical.
The next assay has as its system rats. To be noted: cited from earlier work.
The target in a further assay is human D2L receptors (Homo sapiens, UniProt P14416). Nature of the assay: β-Arrestin-2 recruitment assay. Type of assay: cell-based. The settings on record: standard agonist.
Chain of human D2L receptors (P14416 whole entry): as above

Some results are limits rather than exact numbers.

Chain of human D2R (P14416 whole entry): as above
T1 sequence (P35462 whole entry): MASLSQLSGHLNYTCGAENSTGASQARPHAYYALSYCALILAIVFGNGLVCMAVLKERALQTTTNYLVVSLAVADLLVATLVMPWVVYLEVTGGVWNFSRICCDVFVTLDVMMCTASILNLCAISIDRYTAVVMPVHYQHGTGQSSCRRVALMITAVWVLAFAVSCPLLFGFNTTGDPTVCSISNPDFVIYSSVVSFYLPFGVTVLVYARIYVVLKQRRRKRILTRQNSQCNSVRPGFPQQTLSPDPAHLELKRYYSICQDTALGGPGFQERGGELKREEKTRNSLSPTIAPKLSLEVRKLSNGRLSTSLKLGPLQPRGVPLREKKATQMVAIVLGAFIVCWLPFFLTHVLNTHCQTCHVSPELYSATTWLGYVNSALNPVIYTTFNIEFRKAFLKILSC

In the case of `COc1ccccc1N1CCN(CCCCNC(=O)c2cn3ccccc3n2)CC1` [Compound 7, N-(4-(4-(2-Methoxyphenyl)piperazin-1-yl)butyl)imidazo[1,2-a]pyridine-2-carboxamide], on human D3R [1], the “D3R IC50 ± SEM” value is “subnanomolar”. At human D2LR (compared to compound 6), the “higher affinity at D2R” value is recorded as roughly 10 fold. For the same molecule, the “enhancement in affinity at the D3R” value at human D3R [2] (compared to compound 6) was roughly 3 fold.
With `O=C(NCCCCN1CCN(c2cccc(Cl)c2Cl)CC1)c1cn2ccccc2n1` [Compound 8, N-(4-(4-(2,3-Dichlorophenyl)piperazin-1-yl)butyl)imidazo[1,2-a]pyridine-2-carboxamide], on human D3R [1], the “D3R IC50 ± SEM” value was “subnanomolar” and the “selectivity ratio (D2R IC50)/(D3R IC50)” value was greater than 400. Also, on human D3R [3], the Kb worked out at 0.0038 ± 0.0013 nM; the “stimulation of [35S]GTPγS binding, D3R” value is listed as “did not stimulate”; the “inhibition of basal [35S]GTPγS binding at D3R” value (“inhibition of basal … at D3R” for short) is reported as “less than 30%”. On human D2R, the Kb worked out at 1.1 ± 0.2 nM; the “stimulation of [35S]GTPγS binding, D2R” value is reported as “did not stimulate”; the “inhibition of basal [35S]GTPγS binding at D2R” value (“inhibition of basal … at D2R” for short) is on record as “less than 30%”.
Regarding `CC(C)(C)c1nc(N2CCN(CCCCNC(=O)c3cn4ccccc4n3)CC2)cc(C(F)(F)F)n1` [Compound 25, N-(4-(4-(2-(tert-Butyl)-6-(trifluoromethyl)pyrimidin-4-yl)piperazin-1-yl)butyl)imidazo[1,2-a]pyridine-2-carboxamide], at human D3R [1], the “D3R IC50 ± SEM” value is on record as “subnanomolar” and the “selectivity ratio (D2R IC50)/(D3R IC50)” value was greater than 400. Besides, at human D3R [3], the Kb came out at 1.3 ± 0.4 nM; the “stimulation of [35S]GTPγS binding, D3R” value was “did not stimulate”; the inhibition at 10 µM fell in the range of 40 to 60%; the “inhibition of basal … at D3R” value was “less than 30%”. In addition, on human D2R, the Kb turned out to be 111 ± 25 nM; the “stimulation of [35S]GTPγS binding, D2R” value was “did not stimulate”; the “inhibition of basal … at D2R” value is given as “less than 30%”. The “cocaine self-administration, cocaine reward, cue-induced reinstatement of cocaine-seeking, cocaine-induced place preference” value with rats (rat models) is “significantly attenuating”. The “effect on food reward or spontaneous locomotor activity” value in the assay on rats (rats, at doses decreasing cocaine effects) is reported as “no effect”. In addition, the “cocaine reward, cocaine seeking, preference for cocaine-associated environments, and cocaine induced locomotor activity” value in the assay with rats (rats) is “significant decreases”. In addition, the “selectivity ratio (D2R Ki/D3R Ki)” value at human D3R [2] (Table 1, binding selectivity) was greater than 100.
`CC(C)(C)c1nc(N2CCN(CCCCNC(=O)c3cc4ccccc4[nH]3)CC2)cc(C(F)(F)F)n1` [Compound 26, N-(4-(4-(2-(tert-Butyl)-6-(trifluoromethyl)pyrimidin-4-yl)piperazin-1-yl)butyl)-1H-indole-2-carboxamide]: the “lower binding potency at D2R” value at human D2LR (compared to compound 25) stood at 1.8 fold. For the same molecule, the “lower binding potency at D3R” value at human D3R [2] (compared to compound 25) worked out at 2.6 fold.
In the case of `CC(C)(C)c1nc(N2CCN(CCCCNC(=O)c3cn4ccncc4n3)CC2)cc(C(F)(F)F)n1` [Compound 30, N-(4-(4-(2-(tert-Butyl)-6-(trifluoromethyl)pyrimidin-4-yl)piperazin-1-yl)butyl)imidazo[1,2-a]pyrazine-2-carboxamide], on human D3R [3], the Kb stood at 0.33 ± 0.05 nM; the “stimulation of [35S]GTPγS binding, D3R” value is recorded as “did not stimulate”; the inhibition at 10 µM was 40 to 60%; the “inhibition of basal … at D3R” value is recorded as “less than 30%”. Also, at human D2R, the Kb stood at 25 ± 6 nM; the “stimulation of [35S]GTPγS binding, D2R” value is “did not stimulate”; the “inhibition of basal … at D2R” value is “less than 30%”.
Consider `CC(C)(C)c1nc(N2CCN(CCCCNC(=O)[C@H]3CC[C@H](c4ccccc4)CC3)CC2)cc(C(F)(F)F)n1` [Compound 39, trans-N-(4-(4-(2-(tert-Butyl)-6-(trifluoromethyl)pyrimidin-4-yl)piperazin-1-yl)butyl)-4-phenylcyclohexanecarboxamide], for which, at human D3R [3], the “stimulation of [35S]GTPγS binding, D3R” value is on record as “did not stimulate”; the inhibition at 10 µM was in the range of 40 to 60%; the “inhibition of basal … at D3R” value was “less than 30%”. At human D2R, the “stimulation of [35S]GTPγS binding, D2R” value is recorded as “did not stimulate” and the “inhibition of basal … at D2R” value is “less than 30%”.
`CCCN1CCO[C@@H]2c3cc(O)ccc3OC[C@H]21` [PD128907, reference compound]: the “agonist EC80 dose, D3R” value at human D3R [1] (β-arrestin recruitment, standard agonist) came to 8 nM.
For `CCCN1C[C@H](CSC)C[C@@H]2c3cccc4[nH]cc(c34)C[C@H]21` [pergolide], the “agonist EC80 dose, D2R” value on human D2L receptors is listed as 6 nM.

These data come from publication PMC4148173 (Journal of Medicinal Chemistry, 2014).
